Assay results published in PubChem BioAssay AID1845209 (Molecular Pharmacology Branch, DTP, NCI, 2023).
Several values for one entry are separate records, joined by “and”; a condition that tells them apart may be missing. Identical values can stand only once.

Test system: NCI-H211 tumor spheroids, viability percent test/control
Test: Anticancer human tumor NCI-H211 cell line growth inhibition;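 further: spheroids exposed to agents for seven days before readout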
Settings: spheroids with HUVEC and MSC; for viability, T/C: stronger effect = lower value; active means viability on the fitted dose curve at most 10% of control; inactive means the rest
How it was run: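 Complex spheroids of malignant cells with endothelial cells and mesenchymal stem cells; agents alone or combined, from near clinical Cmax (or 10 microM if unknown) down in half-log steps, 0.25% DMSO final.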

[1] = curve of first compound, second compound 0.003 µM

Cc1sc2c(c1C)C(c1ccc(Cl)cc1)=NC(CC(=O)Nc1ccc(O)cc1)c1nnc(C)n1-2 (configuration not stated) + COc1cc2c(cc1O)CCNC21CSC2c3c(OC(C)=O)c(C)c4c(c3C(COC1=O)N1C(O)C3Cc5cc(C)c(OC)c(O)c5C(C21)N3C)OCO4
inactive: viability, T/C (second compound 30 pM, first compound 0.00949 µM) 45.6%
< 0.00949 µM: IC50 (curve of first compound, second compound 30 pM) | IC50 (curve of first compound, second compound 94.9 pM) | IC50 (curve of first compound, second compound 0.0003 µM) | IC50 (curve of first compound, second compound 0.000949 µM) | IC50 [1]
active: viability, T/C (second compound 30 pM, first compound 0.03 µM) 4.36% | viability, T/C (second compound 30 pM, first compound 0.0949 µM) 0.66% | viability, T/C (second compound 30 pM, first compound 0.3 µM) 0.42% | viability, T/C (second compound 30 pM, first compound 0.949 µM) 0.31% | viability, T/C (second compound 30 pM, first compound 3 µM) 0.33% | viability, T/C (second compound 94.9 pM, first compound 0.00949 µM) 4.74% | viability, T/C (second compound 94.9 pM, first compound 0.03 µM) 0.91% | viability, T/C (second compound 94.9 pM, first compound 0.0949 µM) 0.53% | viability, T/C (second compound 94.9 pM, first compound 0.3 µM) 0.42% | viability, T/C (second compound 94.9 pM, first compound 0.949 µM) 0.33% | viability, T/C (second compound 94.9 pM, first compound 3 µM) 0.43% | viability, T/C (second compound 0.0003 µM, first compound 0.00949 µM) 0.79% | viability, T/C (second compound 0.0003 µM, first compound 0.03 µM) 0.61% | viability, T/C (second compound 0.0003 µM, first compound 0.0949 µM) 0.45% | viability, T/C (second compound 0.0003 µM, first compound 0.3 µM) 0.61% | viability, T/C (second compound 0.0003 µM, first compound 0.949 µM) 0.4% | viability, T/C (second compound 0.0003 µM, first compound 3 µM) 0.4% | viability, T/C (second compound 0.000949 µM, first compound 0.00949 µM) 0.76% | viability, T/C (second compound 0.000949 µM, first compound 0.03 µM) 0.61% | viability, T/C (second compound 0.000949 µM, first compound 0.0949 µM) 0.47% | viability, T/C (second compound 0.000949 µM, first compound 0.3 µM) 0.25% | viability, T/C (second compound 0.000949 µM, first compound 0.949 µM) 0.04% | viability, T/C (second compound 0.000949 µM, first compound 3 µM) 0.09% | viability, T/C (second compound 0.003 µM, first compound 0.00949 µM) 0.1% | viability, T/C (second compound 0.003 µM, first compound 0.03 µM) 0.09% | viability, T/C (second compound 0.003 µM, first compound 0.0949 µM) 0.09% | viability, T/C (second compound 0.003 µM, first compound 0.3 µM) 0.08% | viability, T/C (second compound 0.003 µM, first compound 0.949 µM) 0.1% | viability, T/C (second compound 0.003 µM, first compound 3 µM) 0.3%

CC1COCCN1c1cc(-c2ccnn2C)c2ccnc(-c3ccn[nH]3)c2n1 (configuration not stated) + CC[C@@]1(O)C(=O)OCc2c1cc1n(c2=O)Cc2cc3c(CN(C)C)c(O)ccc3nc2-1
active: viability, T/C (second compound 0.003 µM, first compound 0.0316 µM) 1.02% | viability, T/C (second compound 0.003 µM, first compound 0.1 µM) 1.19% | viability, T/C (second compound 0.003 µM, first compound 0.316 µM) 1.59% | viability, T/C (second compound 0.003 µM, first compound 1 µM) 0.56% | viability, T/C (second compound 0.003 µM, first compound 3.16 µM) 0.45% | viability, T/C (second compound 0.003 µM, first compound 10 µM) 0.65% | viability, T/C (second compound 0.00949 µM, first compound 0.0316 µM) 1.86% | viability, T/C (second compound 0.00949 µM, first compound 0.1 µM) 0.7% | viability, T/C (second compound 0.00949 µM, first compound 0.316 µM) 1.15% | viability, T/C (second compound 0.00949 µM, first compound 1 µM) 0.42% | viability, T/C (second compound 0.00949 µM, first compound 3.16 µM) 0.4% | viability, T/C (second compound 0.00949 µM, first compound 10 µM) 0.58% | viability, T/C (second compound 0.03 µM, first compound 0.0316 µM) 1.1% | viability, T/C (second compound 0.03 µM, first compound 0.1 µM) 1.24% | viability, T/C (second compound 0.03 µM, first compound 0.316 µM) 0.67% | viability, T/C (second compound 0.03 µM, first compound 1 µM) 1.07% | viability, T/C (second compound 0.03 µM, first compound 3.16 µM) 0.38% | viability, T/C (second compound 0.03 µM, first compound 10 µM) 0.47% | viability, T/C (second compound 0.0949 µM, first compound 0.0316 µM) 0.72% | viability, T/C (second compound 0.0949 µM, first compound 0.1 µM) 0.9% | viability, T/C (second compound 0.0949 µM, first compound 0.316 µM) 0.83% | viability, T/C (second compound 0.0949 µM, first compound 1 µM) 0.52% | viability, T/C (second compound 0.0949 µM, first compound 3.16 µM) 0.66% | viability, T/C (second compound 0.0949 µM, first compound 10 µM) 1.17% | viability, T/C (second compound 0.3 µM, first compound 0.0316 µM) 1% | viability, T/C (second compound 0.3 µM, first compound 0.1 µM) 0.97% | viability, T/C (second compound 0.3 µM, first compound 0.316 µM) 0.71% | viability, T/C (second compound 0.3 µM, first compound 1 µM) 0.83% | viability, T/C (second compound 0.3 µM, first compound 3.16 µM) 1.25% | viability, T/C (second compound 0.3 µM, first compound 10 µM) 0.81%
< 0.0316 µM: IC50 [1] | IC50 (curve of first compound, second compound 0.00949 µM) | IC50 (curve of first compound, second compound 0.03 µM) | IC50 (curve of first compound, second compound 0.0949 µM) | IC50 (curve of first compound, second compound 0.3 µM)

CC(C)n1c(=O)n(C)c2cnc3cc(F)c(-c4ccc(OCCCN5CCCCC5)nc4)cc3c21
4.95 µM and 1.31 µM and 4.79 µM: IC50 (curve of compound)
inactive: viability, T/C (compound 0.0316 µM) 91.8% and 79.6% and 91.9% | viability, T/C (compound 0.1 µM) 62.7% and 60.5% and 86.8% | viability, T/C (compound 0.316 µM) 77.7% and 54.9% and 93.9% | viability, T/C (compound 1 µM) 76.7% and 57.7% and 85.2% | viability, T/C (compound 3.16 µM) 66.6% and 43.2% and 68.5% | viability, T/C (compound 10 µM) 23.9% and 14.7% and 17.5%
